Source: patent publication US8796256B2 (Janssen Pharmaceutica NV, priority 2010, dated 2014)

Target: T1, ERR1 (also known as ERR-α or ERR-1) (Homo sapiens, UniProt P11474)
T1 sequence (P11474 193-421 limits assumed): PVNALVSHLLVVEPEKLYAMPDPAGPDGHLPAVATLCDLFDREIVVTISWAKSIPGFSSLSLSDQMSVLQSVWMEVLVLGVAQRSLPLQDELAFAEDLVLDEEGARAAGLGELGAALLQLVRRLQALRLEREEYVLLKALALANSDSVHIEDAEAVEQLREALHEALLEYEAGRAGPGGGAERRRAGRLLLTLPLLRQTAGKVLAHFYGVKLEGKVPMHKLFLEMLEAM
Assay: TR-FRET assay (disruption of co-activator peptide binding to ERR1 LBD)
Type: biochemical
Settings: 6 nM 6His-ERR1LBD, 6 nM GST-SRC-2 peptide; average of 3 independent experiments
Outline: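 Homogeneous TR-FRET measuring displacement of GST-hSRC2 co-activator peptide (6 nM) from His-tagged ERR1 LBD (6 nM), detected with α-GST Eu cryptate (30 nM) and α-His-XL665 (7.5 nM). Buffer 25 mM Tris pH 8, 2.5 mM Hepes, 20 mM KCl, 1 mM DTT, 0.05 mg/mL delipidated BSA; equilibration 4-18 h at 25° C. Hyperbolic dose-response fit, mean of 3 experiments.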

Structure (SMILES)	EC50
O=C(O)C(CC1CCNCC1)N1C(=O)S/C(=C\c2ccc3c(cnn3Cc3ccc(Cl)cc3C(F)(F)F)c2)C1=O (centres unmarked) [Compound 228, 2-[(5Z)-5-({1-[4-Chloro-2-(trifluoromethyl)benzyl]-1H-indazol-5-yl}methylidene)-2,4-dioxo-1,3-thiazolidin-3-yl]-3-piperidin-4-ylpropanoic acid]	0.049 µM
O=C(O)C(Cc1c[nH]cn1)N1C(=O)S/C(=C\c2ccc3c(cnn3Cc3ccc(Cl)cc3C(F)(F)F)c2)C1=O (centres unmarked) [Compound 229, 2-[(5Z)-5-({1-[4-Chloro-2-(trifluoromethyl)benzyl]-1H-indazol-5-yl}methylidene)-2,4-dioxo-1,3-thiazolidin-3-yl]-3-(1H-imidazol-4-yl)propanoic acid]	0.076 µM
O=C1S/C(=C\c2ccc3c(cnn3Cc3ccc(Cl)cc3C(F)(F)F)c2)C(=O)N1C1(C(=O)O)CCNCC1 [Compound 230, 4-[(5Z)-5-({1-[4-Chloro-2-(trifluoromethyl)benzyl]-1H-indazol-5-yl}methylidene)-2,4-dioxo-1,3-thiazolidin-3-yl]piperidine-4-carboxylic acid]	0.016 µM
Nc1nc(CN2C(=O)S/C(=C\c3ccc4c(cnn4Cc4ccc(Cl)cc4C(F)(F)F)c3)C2=O)c[nH]1 [Compound 231, (5Z)-3-[(2-Amino-1H-imidazol-4-yl)methyl]-5-({1-[4-chloro-2-(trifluoromethyl)benzyl]-1H-indazol-5-yl}methylidene)-1,3-thiazolidine-2,4-dione]	0.046 µM
COC(=O)C1(N2C(=O)S/C(=C\c3ccc4c(cnn4Cc4ccc(Cl)cc4C(F)(F)F)c3)C2=O)CCCC1 [Compound 232, Methyl 1-[(5Z)-5-({1-[4-chloro-2-(trifluoromethyl)benzyl]-1H-indazol-5-yl}methylidene)-2,4-dioxo-1,3-thiazolidin-3-yl]cyclopentanecarboxylate]	0.107 µM
O=C1S/C(=C\c2ccc3c(cnn3Cc3ccc(Cl)cc3C(F)(F)F)c2)C(=O)N1C1(C(=O)O)CCCC1 [Compound 233, 1-[(5Z)-5-({1-[4-Chloro-2-(trifluoromethyl)benzyl]-1H-indazol-5-yl}methylidene)-2,4-dioxo-1,3-thiazolidin-3-yl]cyclopentanecarboxylic acid]	0.057 µM
COC(=O)C1(N2C(=O)S/C(=C\c3ccc4c(cnn4Cc4ccc(Cl)cc4C(F)(F)F)c3)C2=O)CCC1 [Compound 234, Methyl 1-[(5Z)-5-({1-[4-chloro-2-(trifluoromethyl)benzyl]-1H-indazol-5-yl}methylidene)-2,4-dioxo-1,3-thiazolidin-3-yl]cyclobutanecarboxylate]	0.099 µM
O=C1S/C(=C\c2ccc3c(cnn3Cc3ccc(Cl)cc3C(F)(F)F)c2)C(=O)N1C1(C(=O)O)CCC1 [Compound 235, 1-[(5Z)-5-({1-[4-Chloro-2-(trifluoromethyl)benzyl]-1H-indazol-5-yl}methylidene)-2,4-dioxo-1,3-thiazolidin-3-yl]cyclobutanecarboxylic acid]	0.045 µM
CC(C)(C)OC(=O)COCCN1C(=O)S/C(=C\c2ccc3c(cnn3Cc3ccc(Cl)cc3C(F)(F)F)c2)C1=O [Compound 236, tert-Butyl {2-[(5Z)-5-({1-[4-chloro-2-(trifluoromethyl)benzyl]-1H-indazol-5-yl}methylidene)-2,4-dioxo-1,3-thiazolidin-3-yl]ethoxy}acetate]	0.111 µM
O=C(O)COCCN1C(=O)S/C(=C\c2ccc3c(cnn3Cc3ccc(Cl)cc3C(F)(F)F)c2)C1=O [Compound 237, {2-[(5Z)-5-({1-[4-Chloro-2-(trifluoromethyl)benzyl]-1H-indazol-5-yl}methylidene)-2,4-dioxo-1,3-thiazolidin-3-yl]ethoxy}acetic acid]	0.098 µM
COC(=O)CN1C(=O)S/C(=C\c2ccc3c(ccn3Cc3ccc(C(F)(F)F)cc3C(F)(F)F)c2)C1=O [Compound 238, Methyl {(5Z)-5-[(1-{[2,4-bis(trifluoromethyl)phenyl]methyl}-1H-indol-5-yl)methylidene]-2,4-dioxo-1,3-thiazolidin-3-yl}acetate]	1.8 µM
CN(C)CCCN1C(=O)S/C(=C\c2ccc3c(ccn3Cc3ccc(C(F)(F)F)cc3C(F)(F)F)c2)C1=O [Compound 239, (5Z)-5-[(1-{[2,4-Bis(trifluoromethyl)phenyl]methyl}-1H-indol-5-yl)methylidene]-3-[3-(dimethylamino)-propyl]-1,3-thiazolidine-2,4-dione]	0.1 µM
CN(C)CCN1C(=O)S/C(=C\c2ccc3c(ccn3Cc3ccc(C(F)(F)F)cc3C(F)(F)F)c2)C1=O [Compound 240, (5Z)-5-[(1-{[2,4-Bis(trifluoromethyl)-phenyl]methyl}-1H-indol-5-yl)methylidene]-3-[2-(dimethylamino)ethyl]-1,3-thiazolidine-2,4-dione]	0.07 µM
O=C(CN1C(=O)S/C(=C\c2ccc3c(ccn3Cc3ccc(C(F)(F)F)cc3C(F)(F)F)c2)C1=O)N1CCOCC1 [Compound 241, (5Z)-5-[(1-{[2,4-Bis(trifluoromethyl)phenyl]methyl}-1H-indol-5-yl)methylidene]-3-(2-morpholin-4-yl-2-oxoethyl)-1,3-thiazolidine-2,4-dione]	0.1 µM
O=C1S/C(=C\c2ccc3c(ccn3Cc3ccc(C(F)(F)F)cc3C(F)(F)F)c2)C(=O)N1CCO [Compound 242, (5Z)-5-[(1-{[2,4-Bis(trifluoromethyl)phenyl]methyl}-1H-indol-5-yl)methylidene]-3-(2-hydroxyethyl)-1,3-thiazolidine-2,4-dione]	0.1 µM
CN(C)CCN1C(=O)S/C(=C\c2ccc3c(ccn3Cc3ccc(Cl)cc3C(F)(F)F)c2)C1=O [Compound 243, (5Z)-5-[(1-{[4-Chloro-2-(trifluoromethyl)phenyl]methyl}-1H-indol-5-yl)methylidene]-3-[2-(dimethylamino)ethyl]-1,3-thiazolidine-2,4-dione]	0.05 µM
CN(C)CCCN1C(=O)S/C(=C\c2ccc3c(ccn3Cc3ccc(Cl)cc3C(F)(F)F)c2)C1=O [Compound 244, (5Z)-5-[(1-{[4-Chloro-2-(trifluoromethyl)phenyl]methyl}-1H-indol-5-yl)methylidene]-3-[3-(dimethylamino)-propyl]-1,3-thiazolidine-2,4-dione]	0.05 µM
CN1CCN(CCCN2C(=O)S/C(=C\c3ccc4c(ccn4Cc4ccc(Cl)cc4C(F)(F)F)c3)C2=O)CC1 [Compound 245, (5Z)-5-[(1-{[4-Chloro-2-(trifluoromethyl)phenyl]methyl}-1H-indol-5-yl)methylidene]-3-[3-(4-methylpiperazin-1-yl)propyl]-1,3-thiazolidine-2,4-dione]	0.05 µM
CN(C)CCN1C(=O)S/C(=C\c2ccc3c(ccn3Cc3ccc(C#N)cc3C(F)(F)F)c2)C1=O [Compound 246, 4-({5-[(Z)-{3-[2-(Dimethylamino)ethyl]-2,4-dioxo-1,3-thiazolidin-5-ylidene}methyl]-1H-indol-1-yl}methyl)-3-(trifluoromethyl)benzonitrile]	0.5 µM
CN(C)CCCN1C(=O)S/C(=C\c2ccc3c(ccn3Cc3ccc(C#N)cc3C(F)(F)F)c2)C1=O [Compound 247, 4-({5-[(Z)-{3-[3-(Dimethylamino)propyl]-2,4-dioxo-1,3-thiazolidin-5-ylidene}methyl]-1H-indol-1-yl}methyl)-3-(trifluoromethyl)benzonitrile]	0.3 µM
O=C(O)[C@H]1CCCN1CCN1C(=O)S/C(=C\c2ccc3c(ccn3Cc3ccc(C(F)(F)F)cc3C(F)(F)F)c2)C1=O [Compound 248, 1-{2-[(5Z)-5-({1-[2,4-Bis(trifluoromethyl)benzyl]-1H-indol-5-yl}methylidene)-2,4-dioxo-1,3-thiazolidin-3-yl]ethyl}-D-proline]	0.29 µM
O=C1S/C(=C\c2ccc3c(ccn3Cc3ccc(F)cc3C(F)(F)F)c2)C(=O)N1CCN1CCOCC1 [Compound 249, (5Z)-5-[(1-{[4-Fluoro-2-(trifluoromethyl)phenyl]methyl}-1H-indol-5-yl)methylidene]-3-(2-morpholin-4-ylethyl)-1,3-thiazolidine-2,4-dione]	0.35 µM
CN(C)CCN1C(=O)S/C(=C\c2ccc3c(ccn3Cc3ccc(F)cc3C(F)(F)F)c2)C1=O [Compound 250, (5Z)-3-[2-(Dimethylamino)ethyl]-5-[(1-{[4-fluoro-2-(trifluoromethyl)phenyl]methyl}-1H-indol-5-yl)methylidene]-1,3-thiazolidine-2,4-dione]	0.2 µM
COCCN1C(=O)S/C(=C\c2ccc3c(ccn3Cc3ccc(F)cc3C(F)(F)F)c2)C1=O [Compound 251, (5Z)-5-[(1-{[4-Fluoro-2-(trifluoromethyl)phenyl]methyl}-1H-indol-5-yl)methylidene]-3-[2-(methyloxy)ethyl]-1,3-thiazolidine-2,4-dione]	0.35 µM
CN(C)CCCN1C(=O)S/C(=C\c2ccc3c(ccn3Cc3ccc(F)cc3C(F)(F)F)c2)C1=O [Compound 252, (5Z)-3-[3-(Dimethylamino)propyl]-5-[(1-{[4-fluoro-2-(trifluoromethyl)phenyl]methyl}-1H-indol-5-yl)methylidene]-1,3-thiazolidine-2,4-dione]	0.1 µM
O=C(O)CN1C(=O)S/C(=C\c2ccc3c(ccn3Cc3ccc(Cl)cc3C(F)(F)F)c2)C1=O [Compound 253, [(5Z)-5-({1-[4-Chloro-2-(trifluoromethyl)benzyl]-1H-indol-5-yl}methylidene)-2,4-dioxo-1,3-thiazolidin-3-yl]acetic acid]	0.12 µM
